Data reported in patent publication US20220273759A1, “PHARMACEUTICAL ASSOCIATION FOR CONVERTING A NEOPLASTIC CELL INTO A NON-NEOPLASTIC CELL AND USES THEREOF” (HISTIDE AG, priority 2015, published 2022).
Where no end group is shown, it is not given here.

Experiments:
[1] = tested on: neoplastic cells (osteosarcoma cells); test: Immunofluorescence visualization of neoplastic cells cultured on a polymer scaffold covalently modified with a GFR-binding compound and a RGD peptide; type: cell-based; details: polymer scaffold covalently modified with a mixture of GFR-binding compound and RGD peptide; after 24 hours of culture
Experimental: (b) Immunofluorescence visualization of a neoplastic cell (osteosarcoma cells) after silencing integrins α3β1 by using shRNAs, after 24 hours of culture on a polymer scaffold covalently grafted with RGD peptides. […] The actin filaments were immunostained by using Alexa 488-phalloidin. The focal adhesions were represented by immunostaining with anti-vinculin. The nucleus was stained with DAPI and is represented by a circle in the center of the cell. Scale bar: 5 μm. (c) Immunofluorescence visualization of neoplastic cells cultured on a polymer scaffold covalently modified with a mixture comprising a GFR-binding compound as defined herein (SEQ ID NO: 2) and a RGD peptide, after 24 hours of culture. Scale bar: 500 μm. […] The actin filaments were immunostained by using Alexa 488-phalloidin. The focal adhesions were represented by immunostaining with anti-vinculin. The nucleus was stained with DAPI and is represented by a circle in the center of the cell.

[2] = Stability of non-covalent association (release of FITC-labelled GFR-binding compound from carrier); type: physicochemical; details: after 3, 7 or 10 days
Experimental: Non-covalent associations of the bioactive carriers were performed under atmospheric conditions (air) at room temperature (about 22° C.). The non-covalent association was carried out using a mixture of GFR-binding compound of SEQ ID NO: 9 (concentration of 1×10^−3 M) with the apatite ceramics or a mixture of GFR-binding compound of SEQ ID NO: 10 (concentration of 1×10^−3 M) with the type-I collagen sponge. The non-covalent pharmaceutical associations were characterized by covalently associating fluorescent GFR-binding compounds of SEQ ID NO: 9 and 10 (covalently bound to fluorescein isothiocyanate (FITC), FIG. 1).

Vinculin = Vinculin gene expression by RT-PCR in osteosarcoma cells; type: cell-based; details: PET carrier, after 24 hours
Experimental: (§1) After 24 hours of culture, total RNA was extracted by using the RNeasy total RNA kit (Qiagen®) according to the manufacturer's instructions. Purified total RNA was used as a template in order to make cDNA by a reverse transcription reaction (Gibco Brl®) with random primers (Invitrogen®). The cDNA was then used as a template for a real-time PCR amplification in the presence of SYBR green reagents (Bio-Rad®) by using a thermocycler (iCycler, Biorad®). Data were analyzed with the iCycler IQ™® software and compared by the ΔΔCt method. Briefly, the mean Ct value of the target gene was normalized to its averaged Ct values of the housekeeping gene (GAPDH) to give a ΔCt value, which was then normalized to a control sample to obtain a ΔΔCt value. The results were obtained from two series of experiments performed in triplicate.
(§2) Neoplastic cells (in this example osteosarcoma cells) were cultured on pharmaceutical associations comprising PET as a bioactive carrier and one of GFR-binding compounds of SEQ ID NO: 12, 19, 30 or 39. After 24 hours, the Paxillin and Vinculin gene expression decreased as shown by RT-PCR (FIG. 9).

Ras/MAP kinase = test: Adhesion checkpoint activation, western blot of ERK phosphorylation in osteosarcoma cells; type: cell-based; details: PET carrier, after 24 hours
Experimental: (§3) After 24 hours of culture, cells were permeabilized (10% SDS, 25 mM NaCl, 10 nM pepstatin and 10 nM leupeptin in distilled water and loading buffer), boiled for 10 minutes and resolved by reducing PAGE (Invitrogen). Proteins were transferred onto nitrocellulose, blocked, and labeled with HRP-conjugated antibodies (Invitrogen). […] Phosphor-Smad1/5/8 was blotted by treating the nitrocellulose with monoclonal anti-p-Smad1/5/8 (Santa Cruz Biotechnology). For all of the experiments the western blot was performed in triplicate, along with an additional blot for actin and coomassie blue staining to ensure constant protein load among samples.
(§4) Neoplastic cells (in this example osteosarcoma cells) were cultured on pharmaceutical associations comprising PET as a bioactive carrier and one of GFR-binding compounds of SEQ ID NO: 12, 19, 30 or 39. The main signaling pathways include: Ras/MAP kinase, FAK/Src kinase and PIP2 which are decreased after 24 hours as shown by western blot quantifications (FIG. 8). […] Finally, a decrease of 3-phosphoinositide-dependent protein kinase 1 (PDK1) protein expression was also was observed (FIG. 8C).

[3] = tested on: Cyclin D (Cyclin D1, Cyclin D2 and Cyclin D3); test: Cyclin D profile by RT-PCR in osteosarcoma cells; type: cell-based; details: PET carrier, after the first 30 min of cell culture
Source text: There are many ways to test, measure and represent the inhibitory effect of a given substance on the gene or protein expression of cyclins D, but for the purpose of the present disclosure, and for the avoidance of any doubts, the inhibition values of a given pharmaceutical association or composition as defined herein is a measure of the gene expression of cyclins D as provided by RT-PCR. It is to be understood that the values of the gene expression of cyclins D disclosed herein correspond to the total gene expression of all cyclins D present in the tested cell i.e. D1, D2 and D3 as known at the date of the present disclosure.
as §1
Neoplastic cells (in this example osteosarcoma cells) were cultured on pharmaceutical associations comprising PET as a bioactive carrier and one of GFR-binding compounds of SEQ ID NO: 12, 19, 30 or 39. […]

Paxillin = Paxillin gene expression by RT-PCR in osteosarcoma cells; type: cell-based; details: PET carrier, after 24 hours
Experimental: as §1, §2

[4] = Adhesion checkpoint activation, western blot of PDK1 in osteosarcoma cells; type: cell-based; details: PET carrier, after 24 hours
Experimental: as §3, §4

Substance | morphology of neoplastic cells (immunofluorescence: actin, vinculin, DAPI) [1] | release of GFR-binding compounds from the carrier [2] | Vinculin gene expression (Vinculin) | phosphorylation at Thr202 and Tyr204 on ERK (Ras/MAP kinase) | Cyclin D gene expression (arithmetic mean of Cyclin D1, D2 and D3) [3] | Paxillin gene expression (Paxillin) | 3-phosphoinositide-dependent protein kinase 1 (PDK1) protein expression [4]
SEQ ID NO: 2: GFR-binding compound as defined herein, covalently grafted on a polymer scaffold in a mixture with a RGD peptide (YVPKPSSAPTKLNAISTLYF; also: covalently grafted on a polymer scaffold) | Spheroid-like structures of neoplastic cells become predominant |  |  |  |  |  | 
SEQ ID NO: 9: GFR-binding compound of the sequence listing, non-covalently associated with apatite ceramics; sequence not shown in this part (AVPKASSAPTKLSAISMLYL; Non-cyclic GFR-binding peptide) |  | no significant release |  |  |  |  | 
SEQ ID NO: 10: GFR-binding compound of the sequence listing, non-covalently associated with type-I collagen sponge; sequence not shown in this part (KVGKASSVPTKLSAISTLYL; Non-cyclic GFR-binding peptide) |  | no significant release |  |  |  |  | 
SEQ ID NO: 12: GFR-binding compound of the sequence listing, tested on PET as bioactive carrier; sequence not shown in this part (KVPKASSVPTELSAISTLYL; Non-cyclic GFR-binding peptide) |  |  | decreased | absence of phosphorylation | decreased | decreased | decrease
SEQ ID NO: 19: GFR-binding compound of the sequence listing, tested on PET as bioactive carrier; sequence not shown in this part (RKIPKAGGVPTELSAISTLYL; Non-cyclic GFR-binding peptide) |  |  | decreased | absence of phosphorylation | decreased | decreased | decrease
SEQ ID NO: 30: GFR-binding compound of the sequence listing, tested on PET as bioactive carrier; sequence not shown in this part (KIPKASSVPTELEPLPIVYY; Non-cyclic GFR-binding peptide) |  |  | decreased | absence of phosphorylation | decreased | decreased | decrease
SEQ ID NO: 39: GFR-binding compound of the sequence listing, tested on PET as bioactive carrier; sequence not shown in this part (KIPKASSVPTELEPLPILYF; Non-cyclic GFR-binding peptide) |  |  | decreased | absence of phosphorylation | decreased | decreased | decrease
